Experimental findings from patent US9173400B2, “Anthranilamide arthropodicide treatment” (E I DU PONT DE NEMOURS AND COMPANY, priority 2001, dated 2015) are described below.

Usually melting point stands for the temperature, or range, at which the solid turns liquid. Regarding `CNC(=O)c1cc(Cl)cc(C)c1NC(=O)c1cc(OCC(F)(F)F)nn1-c1ncccc1Cl`, the melting point lay in the range of 215 to 217 °C.
The value for `CNC(=O)c1cc(Cl)cc(C)c1NC(=O)c1cc(Cl)nn1-c1ncccc1Cl` was 205 to 207 °C; that for `CCn1nc(C(F)(F)F)cc1NC(=O)c1c(C)cccc1C(=O)NC(C)C` [Example 1, 2-[1-Ethyl-3-trifluoromethylpyrazol-5-ylcarbamoyl]-3-methyl-N-(1-methylethyl)benzamide] was 200 to 204 °C.
In turn, `Cc1cccc(C(=O)NC(C)C)c1NC(=O)c1cc(C(F)(F)F)nn1-c1ncccc1C(F)(F)F` [Example 3, N-[2-Methyl-6-[[(1-methylethyl)amino]carbonyl]phenyl]-3-(trifluoromethyl)-1-[3-(trifluoromethyl)-2-pyridinyl]-1H-pyrazole-5-carboxamide] registered a melting point of 233 to 235 °C.
